Reference: the supplement of paper PMC7244745
Counter-ions that a name gives are not always drawn. ± gives the uncertainty stated by the source.

Assays:
[1] = tested on: Klebsiella pneumoniae ATCC 13882; assay: final OD630 (growth) after 24 h; higher = more bacterial growth; extreme values may be limits of the assay
Experimental: (§1)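 Klebsiella pneumoniae ATCC 13882 (start OD600 0.05) grown in M9U medium with 40 mM urea and phenol red plus inhibitor, in triplicate in 96-well plates. A557 and OD630 were read every 15 min for 24 h. Ureolysis was followed as the pH-related A557-A630: onset time, Gompertz-fit rate and final value. Growth was followed as OD630.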

[2] = tested on: Klebsiella pneumoniae ATCC 13882; assay: final pH-related absorbance (A557-A630) after 24 h (absorbance units); higher = more ureolysis; extreme values may be limits of the assay
Experimental: as §1

[3] = tested on: Klebsiella pneumoniae ATCC 13882; assay: onset of ureolytic pH increase; higher = more delayed ureolysis (inhibition)
Experimental: as §1

[4] = tested on: Klebsiella pneumoniae ATCC 13882; assay: rate of pH (A557-A630) increase, Gompertz fit (10^-4 s-1); higher = faster ureolysis; extreme values may be limits of the assay
Experimental: as §1

CC(=NO)C(C)=NO [Dimethylglyoxime]
final OD630 ([1]; 0.03 mM): 0.443 ± 0.007
final OD630 ([1]; 0.3 mM): 0.377 ± 0.017
final OD630 ([1]; 3.01 mM): 0
final pH-related absorbance ([2]; 0.03 mM): 0.183 ± 0.0026
final pH-related absorbance ([2]; 0.3 mM): 0.142 ± 0.032
final pH-related absorbance ([2]; 3.01 mM): 0.466 ± 0.023
onset of ureolytic pH increase ([3]; 0.03 mM): 9.565 ± 0.012 h
onset of ureolytic pH increase ([3]; 0.3 mM): 12.8 ± 0.6 h
onset of ureolytic pH increase ([3]; 3.01 mM): 0 min
rate of pH ([4]; 0.03 mM): 2.093 ± 0.018
rate of pH ([4]; 0.3 mM): 1.96 ± 0.3
rate of pH ([4]; 3.01 mM): 0.0904 ± 0.0046

O[C@@H](CS)[C@@H](O)CS [1.4-dithiothreitol]
final OD630 ([1]; 0.1 mM): 0.432 ± 0.079
final OD630 ([1]; 1 mM): 0.306 ± 0.0084
final OD630 ([1]; 10 mM): 0.264 ± 0.0063
final pH-related absorbance ([2]; 0.1 mM): 0.381 ± 0.013
final pH-related absorbance ([2]; 1 mM): 0.274 ± 0.02
final pH-related absorbance ([2]; 10 mM): 0.137 ± 0.013
onset of ureolytic pH increase ([3]; 0.1 mM): 10.2 ± 0.317 h
onset of ureolytic pH increase ([3]; 1 mM): 16.3 ± 0.317 h
onset of ureolytic pH increase ([3]; 10 mM): 16.84 ± 0.118 h
rate of pH ([4]; 0.1 mM): 1.81 ± 0.074
rate of pH ([4]; 1 mM): 0.11 ± 0.0047
rate of pH ([4]; 10 mM): 0.0642 ± 0.0044

O=S(O)S(=O)(=O)O [Potassium disulfite]
final OD630 ([1]; 0.1 mM): 0.462 ± 0.012
final OD630 ([1]; 1 mM): 0.531 ± 0.001
final OD630 ([1]; 10 mM): 0.024 ± 0.002
final pH-related absorbance ([2]; 0.1 mM): 0.358 ± 0.002
final pH-related absorbance ([2]; 1 mM): 0.356 ± 0.014
final pH-related absorbance ([2]; 10 mM): 0
onset of ureolytic pH increase ([3]; 0.1 mM): 7.117 ± 0.025 h
onset of ureolytic pH increase ([3]; 1 mM): 8.65 ± 0.2 h
onset of ureolytic pH increase ([3]; 10 mM): > 15 h
rate of pH ([4]; 0.1 mM): 1.766 ± 0.005
rate of pH ([4]; 1 mM): 0.8111 ± 0.002
rate of pH ([4]; 10 mM): 0

Oc1ccc(Cl)cc1 [p-chlorophenol]
final OD630 ([1]; 0.1 mM): 0.42 ± 0.0062
final OD630 ([1]; 1 mM): 0.401 ± 0.0036
final OD630 ([1]; 10 mM): 0
final pH-related absorbance ([2]; 0.1 mM): 0.162 ± 0.0043
final pH-related absorbance ([2]; 1 mM): 0.09 ± 0.0059
final pH-related absorbance ([2]; 10 mM): 0
onset of ureolytic pH increase ([3]; 0.1 mM): 12.21 ± 0.0417 h
onset of ureolytic pH increase ([3]; 1 mM): 15.6 ± 0.233 h
onset of ureolytic pH increase ([3]; 10 mM): > 15 h
rate of pH ([4]; 0.1 mM): 1.5 ± 0.019
rate of pH ([4]; 1 mM): 0.0559 ± 0.0036
rate of pH ([4]; 10 mM): 0

S=C=S [Carbon disulfide]
final OD630 ([1]; 0.0285 mM): 0.416 ± 0.0039
final OD630 ([1]; 0.285 mM): 0.428 ± 0.0051
final OD630 ([1]; 2.85 mM): 0.419 ± 0.0062
final pH-related absorbance ([2]; 0.0285 mM): 0.169 ± 0.0022
final pH-related absorbance ([2]; 0.285 mM): 0.175 ± 0.0006
final pH-related absorbance ([2]; 2.85 mM): 0.175 ± 0.0058
onset of ureolytic pH increase ([3]; 0.0285 mM): 10.26 ± 0.0115 h
onset of ureolytic pH increase ([3]; 0.285 mM): 10.2 ± 0.0433 h
onset of ureolytic pH increase ([3]; 2.85 mM): 10.24 ± 0.07 h
rate of pH ([4]; 0.0285 mM): 1.547 ± 0.011
rate of pH ([4]; 0.285 mM): 1.537 ± 0.0055
rate of pH ([4]; 2.85 mM): 1.561 ± 0.0093

O.O.O.O.O.O.O.O=S(=O)([O-])[O-].[Mg+2] [Magnesium sulfate]
final OD630 ([1]; 0.1 mM): 0.553 ± 0.034
final OD630 ([1]; 1 mM): 0.508 ± 0.0073
final OD630 ([1]; 10 mM): 0.521 ± 0.0037
final pH-related absorbance ([2]; 0.1 mM): 0.151 ± 0.0021
final pH-related absorbance ([2]; 1 mM): 0.153 ± 0.0018
final pH-related absorbance ([2]; 10 mM): 0.177 ± 0.0039
onset of ureolytic pH increase ([3]; 0.1 mM): 9.469 ± 0.0767 h
onset of ureolytic pH increase ([3]; 1 mM): 9.51 ± 0.118 h
onset of ureolytic pH increase ([3]; 10 mM): 9.25 ± 0.2 h
rate of pH ([4]; 0.1 mM): 2.16 ± 0.017
rate of pH ([4]; 1 mM): 2.15 ± 0.021
rate of pH ([4]; 10 mM): 2.01 ± 0.046

O=c1oc2ccccc2c(O)c1Cc1c(O)c2ccccc2oc1=O [3.3'-methylene-bis-(4-hydroxycoumarin)]
final OD630 ([1]; 0.0035 mM): 0.424 ± 0.0021
final OD630 ([1]; 0.035 mM): 0.409 ± 0.012
final OD630 ([1]; 0.35 mM): 0.403 ± 0.0058
final pH-related absorbance ([2]; 0.0035 mM): 0.161 ± 0.0024
final pH-related absorbance ([2]; 0.035 mM): 0.158 ± 0.0007
final pH-related absorbance ([2]; 0.35 mM): 0.16 ± 0.0029
onset of ureolytic pH increase ([3]; 0.0035 mM): 9.383 ± 0.0183 h
onset of ureolytic pH increase ([3]; 0.035 mM): 9.87 ± 0.5 h
onset of ureolytic pH increase ([3]; 0.35 mM): 10.2 ± 0.148 h
rate of pH ([4]; 0.0035 mM): 1.45 ± 0.019
rate of pH ([4]; 0.035 mM): 1.44 ± 0.039
rate of pH ([4]; 0.35 mM): 1.4

CN1CC(=O)NC1=N [Creatinine]
final OD630 ([1]; 0.1 mM): 0.505 ± 0.0042
final OD630 ([1]; 1 mM): 0.495 ± 0.013
final OD630 ([1]; 10 mM): 0.517 ± 0.0028
final pH-related absorbance ([2]; 0.1 mM): 0.146 ± 0.0004
final pH-related absorbance ([2]; 1 mM): 0.158 ± 0.0061
final pH-related absorbance ([2]; 10 mM): 0.157 ± 0.005
onset of ureolytic pH increase ([3]; 0.1 mM): 9.588 ± 0.07 h
onset of ureolytic pH increase ([3]; 1 mM): 9.675 ± 0.0283 h
onset of ureolytic pH increase ([3]; 10 mM): 9.58 ± 0.14 h
rate of pH ([4]; 0.1 mM): 2.186 ± 0.011
rate of pH ([4]; 1 mM): 2.17 ± 0.023
rate of pH ([4]; 10 mM): 2.19 ± 0.038

N=C(N)N [Guanidine hydrochloride]
final OD630 ([1]; 0.1 mM): 0.498 ± 0.006
final OD630 ([1]; 1 mM): 0.505 ± 0.006
final OD630 ([1]; 10 mM): 0.503 ± 0.004
final pH-related absorbance ([2]; 0.1 mM): 0.249 ± 0.007
final pH-related absorbance ([2]; 1 mM): 0.27 ± 0.011
final pH-related absorbance ([2]; 10 mM): 0.286 ± 0.009
onset of ureolytic pH increase ([3]; 0.1 mM): 7.22 ± 0.107 h
onset of ureolytic pH increase ([3]; 1 mM): 7.08 ± 0.095 h
onset of ureolytic pH increase ([3]; 10 mM): 7.26 ± 0.2 h
rate of pH ([4]; 0.1 mM): 1.94 ± 0.086
rate of pH ([4]; 1 mM): 2.02 ± 0.066
rate of pH ([4]; 10 mM): 2.03 ± 0.17

O=C1C=CC(=O)C=C1 [p-benzoquinone]
final OD630 ([1]; 0.017 mM): 0.421 ± 0.011
final OD630 ([1]; 0.167 mM): 0
final pH-related absorbance ([2]; 0.017 mM): 0.171 ± 0.0039
final pH-related absorbance ([2]; 0.167 mM): 0
onset of ureolytic pH increase ([3]; 0.017 mM): 11.35 ± 0.0333 h
onset of ureolytic pH increase ([3]; 0.167 mM): > 25 h
rate of pH ([4]; 0.017 mM): 1.59 ± 0.027
rate of pH ([4]; 0.167 mM): 0
